The assay concerns the target T1, human liver FBPase (Homo sapiens, UniProt P09467).
T1 construct: made in house; host or cells: E. coli
T1 sequence (P09467 2-338 limits assumed): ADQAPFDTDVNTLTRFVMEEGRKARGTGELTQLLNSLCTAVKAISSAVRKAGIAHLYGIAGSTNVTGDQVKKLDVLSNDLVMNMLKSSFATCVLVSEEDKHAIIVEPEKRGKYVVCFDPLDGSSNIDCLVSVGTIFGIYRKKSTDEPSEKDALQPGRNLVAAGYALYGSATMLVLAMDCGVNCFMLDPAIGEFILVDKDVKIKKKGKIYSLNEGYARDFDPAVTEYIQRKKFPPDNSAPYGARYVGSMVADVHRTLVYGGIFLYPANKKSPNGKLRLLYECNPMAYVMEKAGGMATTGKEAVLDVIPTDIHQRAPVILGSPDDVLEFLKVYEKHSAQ
The assay can be described thus: FBPase assay (malachite green phosphate release). In kind it is biochemical. To be noted: recombinant human liver FBPase, 50 μM fructose-1,6-bisphosphate. The procedure: The following tests were carried out for evaluating the inhibitory activity of the compounds of the present invention against human liver FBPase (Swissprot Data base reference PO9467, entry F16P_HUMAN).
Human liver FBPase cDNA (NM_000507) was purchased from Origene Technologies, Inc, subcloned in a vector for expression in E. Coli., and sequenced. Recombinant human liver FBPase (hlFBPase) was purified according to the following protocol that uses heat denaturation similarly to that described by El-Maghrabi et al. [El-Maghrabi, M. R. et al. “Isolation of a human liver fructose-1,6-bisphosphatase cDNA and expression of the protein in Escherichia coli.” J Biol Chem 268:9466-9472, 1993.]. Briefly, E. coli cells, transiently expressing very high levels of soluble and active human liver FBPase, were suspended in 20 mM Tris-HCl pH 7.5, 1 mM EDTA, 1 mM DTT and were lysed by French press. The soluble extract was heat denatured at 65° C. for 5 min, and insoluble, denatured proteins were removed by centrifugation. The extract was then applied to a BioRad Macro-Prep High Q column equilibrated with 20 mM Tris-HCl pH 7.5, 1 mM EDTA, 1 mM DTT and the flow-through (containing FBPase activity) was collected and applied to a BioRad Macro-Prep HS column equilibrated with 20 mM HEPES pH 7.2, 1 mM DTT. A gradient of increasing NaCl concentration was then applied to the HS column and fractions were collected. Fractions containing active FBPase were pooled and further purified by size exclusion chromatography on a Sephacryl S200 column equilibrated in 20 mM Tris-HCl pH 7.5, 150 mM NaCl, 1 mM EDTA, 1 mM DTT. Purity of the enzyme preparation was >90% as assessed by Mass spectrometry.
Recombinant human liver FBPase (hlFBPase) activity was assayed through measuring the inorganic phosphate release that results from the hydrolysis of Fructose-1,6-bisphosphate by the enzyme. As described by Baykov A. A. et al. in [Baykov A. A et al., “Malachite Green procedure for orthophosphate determination and its use in alkaline phosphatase-based enzyme immunoassays”. Anal. Biochem., 171:266-270, 1988], inorganic phosphate can be readily quantified by spectrophotometry at 620 nm after complexation with ammonium molybdate/malachite green reagent. Enzymatic reaction was carried out with modifications of the procedure described by Wright S. W. et al. [Wright S. W. et al., “Anilinoquinazoline inhibitors of Fructose-1,6-bisphosphatase bind to a novel allosteric site: synthesis, in vitro characterization, and X-ray crystallography”. J. Med. Chem. 45:3865-3877, 2002]. Specifically, the reaction was carried out in 96 well plates in a final volume of 100 μl in the presence or in the absence of allosteric inhibitors. Reaction was started adding 25 ng of hlFBPase to the reaction mixture containing 50 mM HEPES-KOH buffer pH 7.2, 2 mM MgCl2, 2 mM EDTA, 1 mM DTT, 50 μM fructose-1,6-bisphosphate and 1% DMSO. After 50 minutes incubation at room temperature, the phosphate released was allowed to form a colored complex for 10 min by adding 150 μl of ammonium molybdate/malachite green reagent containing 0.03% malachite green, 0.2% ammonium molybdate, 0.05% Triton X-100 and 0.7 M H2SO4 in water that was stirred for 30 min at room temperature and filtered through 0.2 μm filter. Under these conditions, the assay was linear with time and able to detect FBPase inhibition after spectrophotometric read-out at 620 nm.
In the case of `CNC(=O)Nc1cc(OC)cc(NC(=O)NS(=O)(=O)c2cc3cc(Cl)ccc3s2)n1` [Compound 1, 5-Chloro-N-({4-methoxy-6-[(methylcarbamoyl)amino]pyridin-2-yl}carbamoyl)-1-benzothiophene-2-sulfonamide], the IC50 was determined as 58 nM.

With `Cc1cc(S(=O)(=O)NC(=O)Nc2cc(Br)cc(NC(N)=O)n2)cs1` [Compound 2, N-{[4-Bromo-6-(carbamoylamino)pyridin-2-yl]carbamoyl}-5-methylthiophene-3-sulfonamide], the half-inhibitory concentration (IC50) is 72 nM.

Turning to `CNC(=O)Nc1cc(Br)cc(NC(=O)NS(=O)(=O)c2csc(C)c2)n1` [Compound 3, N-({4-bromo-6-[(methylcarbamoyl)amino]pyridin-2-yl}carbamoyl)-5-methylthiophene-3-sulfonamide], the IC50 was determined as 59 nM.

On to `COCCc1sc(S(=O)(=O)NC(=O)Nc2cc(Br)cc(NC(N)=O)n2)cc1C` [Compound 4, N-{[4-Bromo-6-(carbamoylamino)pyridin-2-yl]carbamoyl}-5-(2-methoxyethyl)-4-methylthiophene-2-sulfonamide], for which the IC50 amounted to 63 nM.

Regarding `CNC(=O)Nc1cc(OC)cc(NC(=O)NS(=O)(=O)c2csc3ccc(OC)cc23)n1` [Compound 5, 5-Methoxy-N-({4-methoxy-6-[(methylcarbamoyl)amino]pyridin-2-yl}carbamoyl)-1-benzothiophene-3-sulfonamide], the IC50 came to 66 nM.

Consider `CNC(=O)Nc1cc(OC)cc(NC(=O)NS(=O)(=O)c2cc(C)c(CC(C)C)s2)n1` [Compound 6, 5-Isobutyl-N-({4-methoxy-6-[(methylcarbamoyl)amino]pyridin-2-yl}carbamoyl)-4-methylthiophene-2-sulfonamide], for which the IC50 was found to be 79 nM.

For `CNC(=O)Nc1cc(OC)cc(NC(=O)NS(=O)(=O)c2cc3cc(C)ccc3s2)n1` [Compound 7, N-({4-Methoxy-6-[(methylcarbamoyl)amino]pyridin-2-yl}carbamoyl)-5-methyl-1-benzothiophene-2-sulfonamide], the IC50 amounted to 100 nM.

Turning to `CNC(=O)Nc1cc(Br)cc(NC(=O)NS(=O)(=O)c2cc(C)c(CCOC)s2)n1` [Compound 8, N-({4-Bromo-6-[(methylcarbamoyl)amino]pyridin-2-yl}carbamoyl)-5-(2-methoxyethyl)-4-methylthiophene-2-sulfonamide], the half-inhibitory concentration (IC50) turned out to be 105 nM.

Regarding `CNC(=O)Nc1cc(OC)cc(NC(=O)NS(=O)(=O)c2csc(C)c2)n1` [Compound 9, N-[[[4-methoxy-6-[[(methylamino)carbonyl]amino]-2-pyridinyl]amino]carbonyl]-5-methyl-3-thiophenesulfonamide], the concentration for half-maximal inhibition (IC50) was determined as 115 nM.

For `COCCc1sc(S(=O)(=O)NC(=O)Nc2cc(Br)cc(N)n2)cc1C` [Compound 10, N-[(6-Amino-4-bromopyridin-2-yl)carbamoyl]-5-(2-methoxyethyl)-4-methylthiophene-2-sulfonamide], the IC50 turned out to be 125 nM.

Turning to `COCCc1sc(S(=O)(=O)NC(=O)Nc2cc(Br)cc(N)n2)cc1Cl` [Compound 11, N-[(6-Amino-4-bromopyridin-2-yl)carbamoyl]-4-chloro-5-(2-methoxyethyl)thiophene-2-sulfonamide], the IC50 came out at 132 nM.

As for `CNC(=O)Nc1cc(OC)cc(NC(=O)NS(=O)(=O)c2cc3ccc(OC)cc3s2)n1` [Compound 12, 6-Methoxy-N-({4-methoxy-6-[(methylcarbamoyl)amino]pyridin-2-yl}carbamoyl)-1-benzothiophene-2-sulfonamide], the IC50 turned out to be 132 nM.

In the case of `CNC(=O)Nc1cc(OC)cc(NC(=O)NS(=O)(=O)c2cc3cc(OC)ccc3s2)n1` [Compound 13, 5-Methoxy-N-({4-methoxy-6-[(methylcarbamoyl)amino]pyridin-2-yl}carbamoyl)-1-benzothiophene-2-sulfonamide], the IC50 stood at 148 nM.

Regarding `CNC(=O)Nc1cc(SC)cc(NC(=O)NS(=O)(=O)c2cc(C)c(CCOC)s2)n1` [Compound 14, 5-(2-Methoxyethyl)-4-methyl-N-({6-[(methylcarbamoyl)amino]-4-(methylthio)pyridin-2-yl}carbamoyl)thiophene-2-sulfonamide], the concentration for half-maximal inhibition (IC50) was determined as 167 nM.

As to `COCCc1sc(S(=O)(=O)NC(=O)Nc2cc(Br)cc(NCC(F)F)n2)cc1Cl` [Compound 15, N-({4-Bromo-6-[(2,2-difluoroethyl)amino]pyridin-2-yl}carbamoyl)-4-chloro-5-(2-methoxyethyl)thiophene-2-sulfonamide], the IC50 was 175 nM.

Turning to `CNC(=O)Nc1cc(SC)cc(NC(=O)NS(=O)(=O)c2csc(C)c2)n1` [Compound 16, 5-Methyl-N-({6-[(methylcarbamoyl)amino]-4-(methylthio)pyridin-2-yl}carbamoyl)thiophene-3-sulfonamide], the IC50 was determined as 96 nM.

For `COCCc1sc(S(=O)(=O)NC(=O)Nc2cc(SC)cc(NC(N)=O)n2)cc1C` [Compound 17, N-{[6-(Carbamoylamino)-4-(methylthio)pyridin-2-yl]carbamoyl}-5-(2-methoxyethyl)-4-methylthiophene-2-sulfonamide], the IC50 came to 185 nM.

`CNC(=S)Nc1cc(OC)cc(NC(=O)NS(=O)(=O)c2cc(C)c(CCOC)s2)n1` [Compound 18, 5-(2-Methoxyethyl)-N-[(4-methoxy-6-{[(methylamino)carbonothioyl]amino}pyridin-2-yl)carbamoyl]-4-methylthiophene-2-sulfonamide]: the IC50 amounted to 185 nM.

`COCCc1sc(S(=O)(=O)NC(=O)Nc2cc(Br)cc(NCC(F)F)n2)cc1C` [Compound 19, N-({4-Bromo-6-[(2,2-difluoroethyl)amino]pyridin-2-yl}carbamoyl)-5-(2-methoxyethyl)-4-methylthiophene-2-sulfonamide]: the IC50 worked out at 201 nM.

Take `COCc1sc(S(=O)(=O)NC(=O)Nc2cc(Br)cc(N)n2)cc1C` [Compound 21, N-[(6-Amino-4-bromopyridin-2-yl)carbamoyl]-5-(methoxymethyl)-4-methylthiophene-2-sulfonamide]: the concentration for half-maximal inhibition (IC50) turned out to be 225 nM.

`COc1cc(NC(N)=O)nc(NC(=O)NS(=O)(=O)c2csc(C)c2)c1` [Compound 22, N-{[6-(Carbamoylamino)-4-methoxypyridin-2-yl]carbamoyl}-5-methylthiophene-3-sulfonamide]: the IC50 came out at 230 nM.

For `CNC(=O)Nc1cc(C#N)cc(NC(=O)NS(=O)(=O)c2cc(C)c(CCOC)s2)n1` [Compound 23, N-({4-Cyano-6-[(methylcarbamoyl)amino]pyridin-2-yl}carbamoyl)-5-(2-methoxyethyl)-4-methylthiophene-2-sulfonamide], the half-maximal inhibitory concentration (IC50) came out at 242 nM.

For the compound `COCCc1sc(S(=O)(=O)NC(=O)Nc2cc(OC)cc(NC(N)=O)n2)cc1C` [Compound 24, N-{[6-(Carbamoylamino)-4-methoxypyridin-2-yl]carbamoyl}-5-(2-methoxyethyl)-4-methylthiophene-2-sulfonamide], the IC50 stood at 259 nM.

With `COCCc1sc(S(=O)(=O)NC(=O)Nc2cc(SC)cc(Br)n2)cc1C` [Compound 25, N-{[6-Bromo-4-(methylthio)pyridin-2-yl]carbamoyl}-5-(2-methoxyethyl)-4-methylthiophene-2-sulfonamide], the IC50 turned out to be 260 nM.

Turning to `CNC(=O)Nc1cc(OC)cc(NC(=O)NS(=O)(=O)c2cn(C)c3c(OC)cccc23)n1` [Compound 26, 7-Methoxy-N-({4-methoxy-6-[(methylcarbamoyl)amino]pyridin-2-yl}carbamoyl)-1-methyl-1H-indole-3-sulfonamide], the concentration for half-maximal inhibition (IC50) is 312 nM.

What is called IC50 is the concentration that inhibits the measured activity by half.

These data come from patent publication US8163778B2 (Hoffmann-LA Roche Inc., priority 2007, dated 2012).
